Data reported in ChEMBL document CHEMBL4033677, “Design and synthesis of pyrazolo[3,4-d]pyrimidines: Nitric oxide releasing compounds targeting hepatocellular carcinoma” (Bioorg Med Chem, 2017).

Assays:
Format in all cases: functional
[1] = tested on: MDA-MB-231; assay: Growth inhibition of human MDA-MB-231 cells assessed as cell growth at 10^-5 M incubated for 48 hrs by sulforhodamine B assay relative to control; details: MDA-MB-231, 48 h, read-out: Activity
[2] = tested on: SF-295; assay: Growth inhibition of human SF295 cells assessed as cell growth at 10^-5 M incubated for 48 hrs by sulforhodamine B assay relative to control; details: SF-295, 48 h, read-out: Activity
[3] = tested on: UACC-62; assay: Growth inhibition of human UACC62 cells assessed as cell growth at 10^-5 M incubated for 48 hrs by sulforhodamine B assay relative to control; details: UACC-62, 48 h, read-out: Activity
[4] = tested on: M14; assay: Growth inhibition of human M14 cells assessed as cell growth at 10^-5 M incubated for 48 hrs by sulforhodamine B assay relative to control; details: M14, 48 h, read-out: Activity
[5] = tested on: SNB-19; assay: Growth inhibition of human SNB19 cells assessed as cell growth at 10^-5 M incubated for 48 hrs by sulforhodamine B assay relative to control; details: SNB-19, 48 h, read-out: Activity
[6] = tested on: LOX IMVI; assay: Growth inhibition of human LOXIMVI cells assessed as cell growth at 10^-5 M incubated for 48 hrs by sulforhodamine B assay relative to control; details: read-out: Activity
[7] = tested on: DU-145; assay: Growth inhibition of human DU145 cells assessed as cell growth at 10^-5 M incubated for 48 hrs by sulforhodamine B assay relative to control; details: DU-145, 48 h, read-out: Activity
[8] = tested on: SK-MEL-5; assay: Growth inhibition of human SK-MEL-5 cells assessed as cell growth at 10^-5 M incubated for 48 hrs by sulforhodamine B assay relative to control; details: SK-MEL-5, 48 h, read-out: Activity
[9] = tested on: OVCAR-8; assay: Growth inhibition of human OVCAR8 cells assessed as cell growth at 10^-5 M incubated for 48 hrs by sulforhodamine B assay relative to control; details: OVCAR-8, 48 h, read-out: Activity
[10] = tested on: HCT-116; assay: Growth inhibition of human HCT116 cells assessed as cell growth at 10^-5 M incubated for 48 hrs by sulforhodamine B assay relative to control; details: HCT-116, 48 h, read-out: Activity
[11] = tested on: OVCAR-5; assay: Growth inhibition of human OVCAR5 cells assessed as cell growth at 10^-5 M incubated for 48 hrs by sulforhodamine B assay relative to control; details: OVCAR-5, 48 h, read-out: Activity
[12] = tested on: SF-539; assay: Growth inhibition of human SF539 cells assessed as cell growth at 10^-5 M incubated for 48 hrs by sulforhodamine B assay relative to control; details: SF-539, 48 h, read-out: Activity
[13] = tested on: HCC 2998; assay: Growth inhibition of human HCC2998 cells assessed as cell growth at 10^-5 M incubated for 48 hrs by sulforhodamine B assay relative to control; details: HCC 2998, 48 h, read-out: Activity
[14] = tested on: SW-620; assay: Growth inhibition of human SW620 cells assessed as cell growth at 10^-5 M incubated for 48 hrs by sulforhodamine B assay relative to control; details: SW-620, 48 h, read-out: Activity
[15] = tested on: Hs-578T; assay: Growth inhibition of human Hs 578T cells assessed as cell growth at 10^-5 M incubated for 48 hrs by sulforhodamine B assay relative to control; details: read-out: Activity
[16] = tested on: Malme-3M; assay: Growth inhibition of human MALME-3M cells assessed as cell growth at 10^-5 M incubated for 48 hrs by sulforhodamine B assay relative to control; details: read-out: Activity
[17] = tested on: HT-29; assay: Growth inhibition of human HT-29 cells assessed as cell growth at 10^-5 M incubated for 48 hrs by sulforhodamine B assay relative to control; details: HT-29, 48 h, read-out: Activity
[18] = tested on: SR; assay: Growth inhibition of human SR cells assessed as cell growth at 10^-5 M incubated for 48 hrs by sulforhodamine B assay relative to control; details: read-out: Activity
[19] = tested on: SF-268; assay: Growth inhibition of human SF268 cells assessed as cell growth at 10^-5 M incubated for 48 hrs by sulforhodamine B assay relative to control; details: SF-268, 48 h, read-out: Activity
[20] = tested on: SN12C; assay: Growth inhibition of human SN12C cells assessed as cell growth at 10^-5 M incubated for 48 hrs by sulforhodamine B assay relative to control; details: read-out: Activity
[21] = tested on: A549; assay: Growth inhibition of human A549/ATCC cells assessed as cell growth at 10^-5 M incubated for 48 hrs by sulforhodamine B assay relative to control; details: A549, 48 h, read-out: Activity
[22] = tested on: 786-0; assay: Growth inhibition of human 786-0 cells assessed as cell growth at 10^-5 M incubated for 48 hrs by sulforhodamine B assay relative to control; details: 786-0, 48 h, read-out: Activity
[23] = tested on: IGROV-1; assay: Growth inhibition of human IGROV1 cells assessed as cell growth at 10^-5 M incubated for 48 hrs by sulforhodamine B assay relative to control; details: IGROV-1, 48 h, read-out: Activity
[24] = tested on: SK-MEL-2; assay: Growth inhibition of human SK-MEL-2 cells assessed as cell growth at 10^-5 M incubated for 48 hrs by sulforhodamine B assay relative to control; details: SK-MEL-2, 48 h, read-out: Activity
[25] = tested on: NCI-H23; assay: Growth inhibition of human NCI-H23 cells assessed as cell growth at 10^-5 M incubated for 48 hrs by sulforhodamine B assay relative to control; details: NCI-H23, 48 h, read-out: Activity
[26] = tested on: UACC-257; assay: Growth inhibition of human UACC257 cells assessed as cell growth at 10^-5 M incubated for 48 hrs by sulforhodamine B assay relative to control; details: UACC-257, 48 h, read-out: Activity
[27] = tested on: NCI/ADR-RES; assay: Growth inhibition of human NCI/ADR-RES cells assessed as cell growth at 10^-5 M incubated for 48 hrs by sulforhodamine B assay relative to control; details: read-out: Activity
[28] = tested on: K562; assay: Growth inhibition of human K562 cells assessed as cell growth at 10^-5 M incubated for 48 hrs by sulforhodamine B assay relative to control; details: K562, 48 h, read-out: Activity
[29] = tested on: MOLT-4; assay: Growth inhibition of human MOLT4 cells assessed as cell growth at 10^-5 M incubated for 48 hrs by sulforhodamine B assay relative to control; details: MOLT-4, 48 h, read-out: Activity
[30] = tested on: EKVX; assay: Growth inhibition of human EKVX cells assessed as cell growth at 10^-5 M incubated for 48 hrs by sulforhodamine B assay relative to control; details: read-out: Activity
[31] = tested on: OVCAR-4; assay: Growth inhibition of human OVCAR4 cells assessed as cell growth at 10^-5 M incubated for 48 hrs by sulforhodamine B assay relative to control; details: OVCAR-4, 48 h, read-out: Activity
[32] = tested on: HCT-15; assay: Growth inhibition of human HCT15 cells assessed as cell growth at 10^-5 M incubated for 48 hrs by sulforhodamine B assay relative to control; details: HCT-15, 48 h, read-out: Activity

SMILES: Cc1nc(Nc2ccc(OCCCBr)cc2)c2cnn(-c3ccccc3)c2n1
- growth at 10 µM [1]: 80.4%
- growth at 10 µM [2]: 101%
- growth at 10 µM [3]: 86.2%
- growth at 10 µM [4]: 94.5%
- growth at 10 µM [5]: 92.6%
- growth at 10 µM [6]: 94.6%
- growth at 10 µM [7]: 106%
- growth at 10 µM [8]: 96.2%
- growth at 10 µM [9]: 75.7%
- growth at 10 µM [10]: 67.2%
- growth at 10 µM [11]: 100%
- growth at 10 µM [12]: 92.5%
- growth at 10 µM [13]: 103%
- growth at 10 µM [14]: 93.3%
- growth at 10 µM [15]: 82.6%
- growth at 10 µM [16]: 98.2%
- growth at 10 µM [17]: 96.6%
- growth at 10 µM [18]: 85.2%
- growth at 10 µM [19]: 86.9%
- growth at 10 µM [20]: 91.8%
- growth at 10 µM [21]: 72.2%
- growth at 10 µM [22]: 91.6%
- growth at 10 µM [23]: 90.3%
- growth at 10 µM [24]: 98%
- growth at 10 µM [25]: 90.7%
- growth at 10 µM [26]: 94.4%
- growth at 10 µM [27]: 92.1%
- growth at 10 µM [28]: 102%
- growth at 10 µM [29]: 93.6%
- growth at 10 µM [30]: 76.5%
- growth at 10 µM [31]: 94.3%
- growth at 10 µM [32]: 99.2%

SMILES: BrCCCOc1ccc(Nc2ncnc3c2cnn3-c2ccccc2)cc1
- growth at 10 µM [1]: 96.9%
- growth at 10 µM [2]: 107%
- growth at 10 µM [3]: 91.4%
- growth at 10 µM [4]: 100%
- growth at 10 µM [5]: 97.7%
- growth at 10 µM [6]: 98.1%
- growth at 10 µM [7]: 108%
- growth at 10 µM [8]: 93%
- growth at 10 µM [9]: 92.7%
- growth at 10 µM [10]: 96.7%
- growth at 10 µM [11]: 104%
- growth at 10 µM [12]: 92.5%
- growth at 10 µM [13]: 108%
- growth at 10 µM [14]: 114%
- growth at 10 µM [15]: 101%
- growth at 10 µM [16]: 112%
- growth at 10 µM [17]: 99.4%
- growth at 10 µM [18]: 82.6%
- growth at 10 µM [19]: 86%
- growth at 10 µM [20]: 94%
- growth at 10 µM [21]: 90.7%
- growth at 10 µM [22]: 106%
- growth at 10 µM [23]: 80.5%
- growth at 10 µM [24]: 98%
- growth at 10 µM [25]: 91.5%
- growth at 10 µM [26]: 109%
- growth at 10 µM [27]: 98.3%
- growth at 10 µM [28]: 105%
- growth at 10 µM [29]: 83.6%
- growth at 10 µM [30]: 83.2%
- growth at 10 µM [31]: 93.3%
- growth at 10 µM [32]: 59.2%

SMILES: Cc1nc(Nc2ccc(OCCCBr)cc2)c2c(C)nn(-c3ccccc3)c2n1
- growth at 10 µM [1]: 94%
- growth at 10 µM [2]: 96.3%
- growth at 10 µM [3]: 83%
- growth at 10 µM [4]: 94%
- growth at 10 µM [5]: 94.5%
- growth at 10 µM [6]: 98.3%
- growth at 10 µM [7]: 109%
- growth at 10 µM [8]: 96.1%
- growth at 10 µM [9]: 94.6%
- growth at 10 µM [10]: 81.3%
- growth at 10 µM [11]: 91.4%
- growth at 10 µM [12]: 98.3%
- growth at 10 µM [13]: 107%
- growth at 10 µM [14]: 111%
- growth at 10 µM [15]: 97.3%
- growth at 10 µM [16]: 107%
- growth at 10 µM [17]: 93.7%
- growth at 10 µM [18]: 74.6%
- growth at 10 µM [19]: 93.8%
- growth at 10 µM [20]: 78.8%
- growth at 10 µM [21]: 78.7%
- growth at 10 µM [22]: 83.6%
- growth at 10 µM [23]: 91.8%
- growth at 10 µM [24]: 91.5%
- growth at 10 µM [25]: 97.5%
- growth at 10 µM [26]: 93.3%
- growth at 10 µM [27]: 107%
- growth at 10 µM [28]: 100%
- growth at 10 µM [29]: 92%
- growth at 10 µM [30]: 90.9%
- growth at 10 µM [31]: 99.5%
- growth at 10 µM [32]: 94%

SMILES: Cc1nn(-c2ccccc2)c2ncnc(Nc3ccc(OCCCBr)cc3)c12
- growth at 10 µM [1]: 87.4%
- growth at 10 µM [2]: 93%
- growth at 10 µM [3]: 89.3%
- growth at 10 µM [4]: 91.3%
- growth at 10 µM [5]: 94.7%
- growth at 10 µM [6]: 106%
- growth at 10 µM [7]: 108%
- growth at 10 µM [8]: 86.6%
- growth at 10 µM [9]: 94.2%
- growth at 10 µM [10]: 81.5%
- growth at 10 µM [11]: 103%
- growth at 10 µM [12]: 96%
- growth at 10 µM [13]: 107%
- growth at 10 µM [14]: 108%
- growth at 10 µM [15]: 111%
- growth at 10 µM [16]: 106%
- growth at 10 µM [17]: 58.2%
- growth at 10 µM [18]: 81.4%
- growth at 10 µM [19]: 103%
- growth at 10 µM [20]: 95.2%
- growth at 10 µM [21]: 60.9%
- growth at 10 µM [22]: 64.3%
- growth at 10 µM [23]: 105%
- growth at 10 µM [24]: 84%
- growth at 10 µM [25]: 99%
- growth at 10 µM [26]: 84.8%
- growth at 10 µM [27]: 102%
- growth at 10 µM [28]: 100%
- growth at 10 µM [29]: 83.7%
- growth at 10 µM [30]: 92.5%
- growth at 10 µM [31]: 99.6%
- growth at 10 µM [32]: 90%
